Experimental data published in patent US20100041045A1, “NUCLEIC ACID FLUORESCENT STAINS” (SIGMA-ALDRICH CO., priority 2007, published 2010).
Read-outs that look alike come from different tables or passages of the source.

What was measured:
[1] = tested on: PstI-digested lambda DNA; test: Post electrophoretic staining of DNA in agarose gels (Example 2); conditions: for detection of stained DNA at longer wavelengths: laser scanner, 532/580 filter set
Experimental: The absorption and emission spectra of the unsymmetrical monomethincyanine dyes of the invention are shifted to longer wavelengths relative to those of commonly used nucleic acid stains. […] Invitrogen Corp.) and imaged using different detection devices. PstI-digested lambda DNA (Cat. No. D1793; Sigma-Aldrich, St. Louis, Mo.) was resolved on agarose gels in the presence of TBE buffer, pH 8.3. Lanes were loaded with a total of either 500 ng or 100 ng of DNA (the loading buffer contained 0.05% bromophenol blue (w/v), 40% sucrose (w/v), 0.5% SDS (w/v), and 0.1 M EDTA, pH 8). The gels were run at 90 V for about 90 min. After electrophoresis, the gels were submerged in a solution of TBE buffer comprising 2 μM of 6 (SL-2791) or SG1 for 1 hr. After a quick rinse, the gels were imaged with 1) a 300 nm UV transilluminator (Cat. No. T2202; Sigma-Aldrich) or a 450 nm (blue light) transilluminator (Dark Reader™; Clare Chemical Research, Denver, Colo.) and a CCD camera imaging system (Gel Logic 100; Kodak Imaging, Rochester, N.Y.) equipped with a 535 nm or a 590 nm emission filter and 2) a laser scanner fluorescent image analyzer system (FLA-300; Fujifilm, Japan) equipped with excitation/emission filter sets of 473/520 nm or 532/580 nm.

[2] = tested on: HindIII-digested lambda DNA; test: Digestion of stained DNA (Example 7); assay type: biochemical; conditions: 6557 bp band eluted from gel, restriction enzyme
Experimental: To determine whether the binding between DNA and an unsymmetrical monomethincyanine dye was strong enough to inhibit the digestion of the DNA, HindIII-digested lambda DNA (1 μg/lane) was resolved on an agarose gel (0.8%), as described above. The DNA was stained either during or after electrophoresis. The band-of-interest (e.g., the 6557 bp band) was excised from the gel using a blue light transilluminator [see FIG. 6A, the DNA was stained with 6 (SL-2791)]. DNA was eluted from the piece of agarose using a spin column (GenElute Agarose Spin Column, Cat. No. 5-6500; Sigma-Aldrich). The collected DNA was digested with an appropriate restriction enzyme, and the reaction products were analyzed on a new agarose gel (1.2%) using compound 9 (SL-2845). The left lane of FIG. 6B presents the undigested DNA and the right lane of FIG. 6B presents the digested products.

[3] = tested on: HindIII-digested lambda DNA; test: Prestaining of DNA during electrophoresis (Example 3)
Experimental: The ability of another of the new unsymmetrical monomethincyanine dyes, i.e., compound 7 (SL-2833), to stain DNA during electrophoresis (i.e., “prestain”) was compared to that of ethidium bromide (EtBr). For this, 1 μM of 7 (SL-2833) or EtBr was added to the heated agarose before the gel was poured. The gels were loaded with 200 ng/lane and 20 ng/lane of HindIII-digested lambda DNA (Cat. No. D9780; Sigma-Aldrich) and run at 90 V for about 90 min. After electrophoresis, the gels were imaged as described above in Example 2.

[4] = tested on: HindIII-digested lambda DNA; test: DNA gel staining, comparison of compounds 7 and 8 (Example 4); conditions: 200 and 20 ng/lane DNA
Experimental: The brightness, sensitivity, and spectral properties of two of the new unsymmetrical monomethincyanine dyes, compound 7 (SL-2833) and compound 8 (SL-2834), were compared by staining gels containing 200 ng/lane and 20 ng/lane of HindIII-digested lambda DNA. The gels were processed and imaged as described above in Example 2.

[5] = tested on: HindIII-digested lambda DNA and 0.2-10 kb RNA markers; test: Staining of DNA and RNA in gels (Example 5); conditions: 200 ng/lane DNA, 1 μg/lane RNA; laser scanner 532/580 nm
Experimental: Gels were loaded with 200 ng/lane of HindIII-digested lambda DNA and 1 μg/lane of 0.2-10 kb RNA markers (Cat. No. R1386; Sigma-Aldrich). The RNA loading buffer contained 62.5% formamide (v/v), 1.14 M formaldehyde, 0.2 mg/ml bromophenol blue, 0.2 mg/ml xylene cyanol, and 1.25×MOPS-EDTA-sodium acetate buffer. After electrophoresis the gels were stained with compound 9 (SL-2845), SG1, or the RNA-specific stain SYBR® Green 2 (SG2; Invitrogen) and imaged as described above in Example 2.

[6] = tested on: human alu-consnesus sequence; test: Real-time qPCR (Example 9); assay type: biochemical
Experimental: PCR was performed on human genomic DNA obtained from 0.16 million human peripheral blood leukocytes by direct lysis in a volume of 1 ml as described by Christopherson et al, PCR-Based Assay To Quantify Human Immunodeficiency Virus Type 1 DNA In Peripheral Blood Mononuclear Cells, 2000, J Clin Microbiol., pp. 630-634, Vol. 38. […] Additionally, a non-template control containing deionised water as sample was used. Two μl per sample were then used for real-time PCR as follows: PCR reactions were run in JumpStart™ ReadyMix™ (Sigma Aldrich, order number p2893), containing salt, buffer, Taq-DNA polymerase and deoxynucleotidetriphosphates in a final volume of 32 μl. PCR primers were added to a final concentration of 1 μM. To obtain optimal performance in real time PCR, the PCR mix was supplemented with additional MgCL2 to a final concentration of 3 mM. The DNA binding dye Nancy-520 was added to a final concentration of 200 nM. PCR primers mf39 (5′-[…]-3′) and mf40 (5′-[…]-3′) were used at a final concentration of 1 μM. These primers amplify a 133 base pair fragment of the human alu-consnesus sequence (see Clayerie et al, Alu alert, 1994, Nature, pp. 752, Vol. 371.) (available from the Genbank database: http://www.ncbi.nlm.nih.gov/Genbank/, entry nr: HSU14574). Because these repetitive sequences are highly abundant in the human genome, the PCR for alu sequences can be used to detect minute amounts of human DNA.
Real-time PCR was performed in a real-time PCR thermocycler (IQ-5, Biorad, Basel Switzerland) using the following cycling profile: Initial denaturation 94° C. 20 sec, followed for 40 cycles (94° C. 5 sec, 60° C. 5 sec, 72° C. 20 sec, 60° C. 60 sec with real-time monitoring). After cycling a melting curve analysis ranging from 55° C.-92° C. was performed with temperature increments of 0.5° C. and measurement intervals of 30 sec. Five different optical filter-sets were used for real-time PCR monitoring and melting-curve analysis according to the suppliers instructions (see table 1).
Data (FIG. 9A, 9C, 9D) were analyzed using the IQ5 software (version 2.0) or by linear regression analysis (FIG. 9B) using the statistical software GraphPad Prism version 5.01 (GraphPad Software, Inc., La Jolla, Calif.)
The first number, 485, indicates the center of the wavelength of light. The second number, 20 indicates the total breadth of wavelengths of light that can pass through it.

[7] = tested on: DNA polymerase; test: Inhibition of DNA polymerase activity in qPCR; assay type: biochemical; conditions: concentrations greater than 0.5 μM
[8] = tested on: dsDNA; test: Binding specificity and fluorescence with dsDNA versus ssDNA
[9] = tested on: HindIII-digested lambda DNA; test: Determination of the lower limit of detection (Example 6); conditions: 300 nm UV transilluminator, CCD camera, 590 nm emission filter
Experimental: HindIII-digested lambda DNA (200 ng/lane and 20 ng/lane) was resolved on agarose gels, as described above. EtBr was added to one gel such that the DNA was stained during electrophoresis; the other gels were stained with compound 6 (SL-2791), 7 (SL-2833), 8 (SL-2834), 9 (SL-2845), or SG1 after electrophoresis. Gels were imaged using a 300 nm UV transilluminator and a CCD camera with a 590 nm emission filter.

[10] = tested on: DNA polymerase; conditions: high concentrations (>0.5 μM); cited from earlier work
[11] = 1 μM in gel, UV transilluminator

CN1C(c2ccccc2)=C/C(=C\c2sc3ccccc3[n+]2CCCO)c2ccccc21 [Compound 6, 1-Methyl-4-[(2,3-dihydro-3-(3-hydroxypropyl)benzo-1,3-thiazol-2-yl)-methyliden]-2-phenyl-quinolinium perchlorate]
brightness of stained DNA bands compared with SG1 ([1]; 2 μM stain in TBE for 1 hr, under each detection condition): much brighter | detection of stained DNA at longer wavelengths [1]: could be detected at longer wavelengths | enzymatic digestion of stained DNA [2]: may be enzymatically digested

Cc1ccc2c(c1)/C(=C/c1sc3ccccc3[n+]1CCCO)C=C(c1ccccc1)N2C [Compound 7]
background fluorescence at top of gels compared with EtBr [3, 11]: lower background fluorescence | fluorescence of stained DNA bands compared with EtBr [3, 11]: increased fluorescence | imaging of stained DNA at longer wavelengths ([3]; laser scanner 473/520 and 532/580 nm filter sets, low levels of DNA = 20 ng/lane): readily imaged | detection using the laser-based long wavelength imaging system [4]: clearly detected | fluorescence with blue light transilluminator and 590 nm filter as compared to UV transilluminator [4]: reduced fluorescence

Cc1ccc2c(c1)/C(=C/c1sc3ccccc3[n+]1CCO)C=C(c1ccccc1)N2C [Compound 8]
detection using the laser-based long wavelength imaging system [4]: clearly detected | fluorescence with blue light transilluminator and 590 nm filter as compared to UV transilluminator [4]: reduced fluorescence

CN1C(c2ccccc2)=C/C(=C\c2sc3ccccc3[n+]2CCCCO)c2ccccc21 [Compound 9]
staining intensity of DNA versus RNA [5]: stained DNA more intensely than RNA | robustness in DNA melt curve analysis ([6]; 55° C.-92° C. following PCR cycling): sufficiently robust | thermostability ([6]; PCR temperature cycles): high thermostability | Performance of PCR in measuring Nancy-520 fluorescence ([6]; filter-set CY3, 545/30X 585/20M): Filter set unsuitable (data not shown) | Performance of PCR in measuring Nancy-520 fluorescence ([6]; filter-set CY5, 630/30X 685/30M): Filter set unsuitable (data not shown) | Performance of PCR in measuring Nancy-520 fluorescence ([6]; filter-set FAM, 485/20X 530/30M): Weak | Performance of PCR in measuring Nancy-520 fluorescence ([6]; filter-set TXR, 575/30X 625/30M): Strong amplification signals (virtually | PCR signal amplitudes at lower dye concentrations ([6]; lower concentrations than 2000 nm, data not shown): Suitable although slightly reduced signal amplitudes | inhibition of DNA polymerase activity [7]: does not inhibit DNA polymerase activity | binding specificity for dsDNA [8]: high binding specificity | fluorescence in the presence of dsDNA [8]: strong fluorescence signal | fluorescence in the presence of ssDNA or in the absence of nucleic acids [8]: only weak fluorescence

CCCN(CCCN(C)C)c1cc(/C=C2/Sc3ccccc3N2C)c2ccccc2[n+]1-c1ccccc1 [SG1]
detection of stained DNA at longer wavelengths [1]: not visible | detection of stained DNA at longer wavelengths ([1]; listed as SYBR® Green 1): not detected | lower limit of detection, DNA per lane [9]: less than 1 ng | inhibition of DNA polymerase activity [10]: inhibit DNA polymerase activity
